21 compounds from patent US8952177B2 (Janssen Pharmaceutica NV, priority 2013, dated 2015) can be followed below.

Counter-ions that a name gives are not always drawn.

The subject of assay [1] is leukotriene pathway in human whole blood (LTB4). Kind of assay: Human whole blood assay (LTB4 after calcium ionophore A23187 stimulation). The conditions noted are these: human whole blood diluted 1:1 in RPMI, 15 min pre-incubation, A23187 7 μg/mL for 30 min at 37° Celsius. The assay is classed as cell-based. The method in brief:
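Heparinised human whole blood, diluted 1:1 in RPMI, was preincubated with compound for 15 min at 37° C. before stimulation with A23187 (7 μg/mL) for 30 min. Plasma LTB4 was measured by immunoassay kit and IC50 obtained by 4-parameter fit; single replicate per plate, blood from at least one donor.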

Assay [2] concerns the target human FLAP (Homo sapiens (Human), UniProt P20292). Kind of assay: FLAP binding assay (HTRF format). As to conditions: human FLAP-containing Sf-9 membranes, 25 nM HTRF ligand, 2 h; average of runs; read-out: FLAP Binding wild type HTRF Ki. The method in brief:
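His6-tagged human FLAP in Sf-9 membranes competed against a FITC-labelled indole FLAP modulator in HTRF format; 2 h reaction, read as HTRF ratio. Ki and IC50 from averaged duplicate ratios over 2–20 runs of two plates each; parenthetical numbers give run count.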

human FLAP, sequence (P20292 whole entry): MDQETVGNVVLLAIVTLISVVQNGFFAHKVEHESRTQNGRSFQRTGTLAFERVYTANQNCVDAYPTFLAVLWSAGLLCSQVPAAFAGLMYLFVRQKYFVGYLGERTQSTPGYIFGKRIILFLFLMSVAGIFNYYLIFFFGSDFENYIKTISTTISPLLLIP

On to `Cc1cc(Cn2c([C@@H]3CCCC[C@@H]3C(=O)O)nc3ccc(OCc4ccn(C)n4)cc32)ccc1OC(F)(F)F` (racemic) [Example 106, racemic cis-2-{6-[(1-Methyl-1H-pyrazol-3-yl)methoxy]-1-[3-methyl-4-(trifluoromethoxy)benzyl]-1H-benzimidazol-2-yl}cyclohexanecarboxylic acid as the HCl salt], for which the IC50 in assay [1] (Homo sapiens) was found to be 1160 nM. Besides, the Ki in assay [2] was found to be 5.4 nM.
The like results for `Cc1ccc(Cn2c([C@@H]3[C@H](C(=O)O)C3(C)C)nc3ccc(OCc4ccc(C)cn4)cc32)cc1` (racemic) [Example 121, racemic cis-2,2-Dimethyl-3-{1-(4-methylbenzyl)-6-[(5-methylpyridin-2-yl)methoxy]-1H-benzimidazol-2-yl}cyclopropanecarboxylic acid] were, in that order, 2110 nM and 150 nM.
For the compound `Cn1ccc(COc2ccc3nc([C@@H]4[C@H](C(=O)O)C4(C)C)n(Cc4ccc(OC(F)(F)F)cc4)c3c2)n1` (racemic) [Example 122, racemic cis-2,2-Dimethyl-3-{6-[(1-methyl-1H-pyrazol-3-yl)methoxy]-1-[4-(trifluoromethoxy)benzyl]-1H-benzimidazol-2-yl}cyclopropanecarboxylic acid], the IC50 in assay [1] (Homo sapiens) was 3400 nM. Moreover, the Ki in assay [2] was roughly 830 nM.
The like results for `Cc1cnc(COc2ccc3nc([C@@H]4[C@H](C(=O)O)C4(C)C)n(Cc4ccc(Br)cc4)c3c2)c(F)c1` (racemic) [Example 132, racemic cis-3-{1-(4-Bromobenzyl)-6-[(3-fluoro-5-methylpyridin-2-yl)methoxy]-1H-benzimidazol-2-yl}-2,2-dimethylcyclopropanecarboxylic acid] were, in that order, 270 nM and 2.9 nM.
The like results for `Cn1ccc(COc2ccc3nc([C@@H]4[C@H](C(=O)O)C4(C)C)n(Cc4ccc(Br)cc4)c3c2)n1` (racemic) [Example 134, racemic cis-3-{1-(4-Bromobenzyl)-6-[(1-methyl-1H-pyrazol-3-yl)methoxy]-1H-benzimidazol-2-yl}-2,2-dimethylcyclopropanecarboxylic acid] were, in that order, 860 nM and roughly 500 nM.
The corresponding values for `Cc1cnc(COc2ccc3nc([C@H]4CCCC[C@H]4C(=O)O)n(Cc4c(F)cc(-c5ccc(C(F)(F)F)cc5)cc4F)c3c2)c(F)c1` (racemic) [Example 137, racemic cis-2-(1-((3,5-difluoro-4′-(trifluoromethyl)-[1,1′-biphenyl]-4-yl)methyl)-6-((3-fluoro-5-methylpyridin-2-yl)methoxy)-1H-benzo[d]imidazol-2-yl)cyclohexanecarboxylic acid] are 91 nM and 0.66 nM.
Regarding `Cc1ccc(COc2ccc3nc([C@H]4CCCC[C@H]4C(=O)O)n(Cc4c(F)cc(-c5ccc(C(F)(F)F)cc5)cc4F)c3c2)nc1` (racemic) [Example 138, racemic cis-2-(1-{[3,5-Difluoro-4′-(trifluoromethyl)biphenyl-4-yl]methyl}-6-[(5-methylpyridin-2-yl)methoxy]-1H-benzimidazol-2-yl)cyclohexanecarboxylic acid], the IC50 in assay [1] (Homo sapiens) is 97 nM. Moreover, in assay [2], the Ki stood at 2.5 nM.
The like results for `Cc1ccc(COc2ccc3nc([C@H]4CCCC[C@H]4C(=O)O)n(Cc4cccc(-c5ccc(C(F)(F)F)cc5)c4)c3c2)nc1` (racemic) [Example 145, racemic cis-2-(6-[(5-Methylpyridin-2-yl)methoxy]-1-{[4′-(trifluoromethyl)biphenyl-3-yl]methyl}-1H-benzimidazol-2-yl)cyclohexanecarboxylic acid] were, in that order, 920 nM and 7.2 nM.
The like results for `Cn1ccc(COc2ccc3nc([C@@H]4CCCC[C@@H]4C(=O)O)n(Cc4cccc(-c5ccc(C(F)(F)F)cc5)c4)c3c2)n1` (racemic) [Example 150, racemic cis-2-(6-[(1-Methyl-1H-pyrazol-3-yl)methoxy]-1-{[4′-(trifluoromethyl)biphenyl-3-yl]methyl}-1H-benzimidazol-2-yl)cyclohexanecarboxylic acid] were, in that order, 140 nM and 1.4 nM.
Turning to `Cn1cc(Cl)c(COc2ccc3nc([C@@H]4CCCC[C@@H]4C(=O)O)n(Cc4ccc(-c5ccc(C(F)(F)F)cc5)cc4)c3c2)n1` (racemic) [Example 151, racemic cis-2-(6-[(4-Chloro-1-methyl-1H-pyrazol-3-yl)methoxy]-1-{[4′-(trifluoromethyl)biphenyl-4-yl]methyl}-1H-benzimidazol-2-yl)cyclohexanecarboxylic acid], in assay [1] (Homo sapiens), the IC50 is 910 nM. Besides, the Ki in assay [2] is 13 nM.
The like results for `Cc1ccc(COc2ccc3nc(C4CCCC[C@H]4C(=O)O)n(Cc4ccc(N5CCC(F)(F)CC5)cc4F)c3c2)nc1` (mixture of isomers) [Example 161, racemic cis-2-{1-[4-(4,4-Difluoropiperidin-1-yl)-2-fluorobenzyl]-6-[(5-methylpyridin-2-yl)methoxy]-1H-benzimidazol-2-yl}cyclohexanecarboxylic acid] were, in that order, 300 nM and 4 nM.
Consider `Cn1ccc(COc2cc(F)c3nc(C4CCCC[C@@H]4C(=O)O)n(Cc4ccc(N5CC(F)(F)C5)cc4)c3c2)n1` (mixture of isomers) [Example 168, racemic cis-2-{1-[4-(3,3-Difluoroazetidin-1-yl)benzyl]-4-fluoro-6-[(1-methyl-1H-pyrazol-3-yl)methoxy]-1H-benzimidazol-2-yl}cyclohexanecarboxylic acid as the formate salt], for which, in assay [1], the half-maximal inhibitory concentration (IC50) turned out to be 3570 nM. Besides, the Ki in assay [2] is 7.8 nM.
`Cn1ccc(COc2cc(F)c3nc([C@@H]4CCCC[C@@H]4C(=O)O)n(Cc4ccc(N5CCCCC5)cc4)c3c2)n1` (racemic) [Example 169, racemic cis-2-{4-Fluoro-6-[(1-methyl-1H-pyrazol-3-yl)methoxy]-1-(4-piperidin-1-ylbenzyl)-1H-benzimidazol-2-yl}cyclohexanecarboxylic acid as the HCl salt]: in assay [1] (Homo sapiens), the IC50 was 1220 nM. The Ki in assay [2] is 12 nM.
The like results for `Cc1cnc(COc2ccc3nc([C@@H]4CCCC[C@@H]4C(=O)O)n(Cc4ccc(N5CCC(C)CC5)cc4)c3c2)c(F)c1` (racemic) [Example 178, racemic cis-2-{6-[(3-Fluoro-5-methylpyridin-2-yl)methoxy]-1-[4-(4-methylpiperidin-1-yl)benzyl]-1H-benzimidazol-2-yl}cyclohexanecarboxylic acid] were, in that order, 47 nM and 1.2 nM.
The corresponding values for `Cc1cnc(COc2ccc3nc([C@H]4CCCC[C@H]4C(=O)O)n(Cc4ccc(N5CCC(F)CC5)cc4)c3c2)c(F)c1` (relative stereo) [Example 176, (1R*,2S*)-2-{6-[(3-Fluoro-5-methylpyridin-2-yl)methoxy]-1-[4-(4-fluoropiperidin-1-yl)benzyl]-1H-benzimidazol-2-yl}cyclohexanecarboxylic acid] are 110 nM and 0.42 nM.
The like results for `Cc1cnc(COc2ccc3nc([C@H]4CCCC[C@H]4C(=O)O)n(Cc4ccc(-c5ccc(C(F)(F)F)cc5)cc4)c3c2)c(F)c1` (single isomer, unassigned) [Example 139, (1R*,2S*)-2-(6-[(3-Fluoro-5-methylpyridin-2-yl)methoxy]-1-{[4′-(trifluoromethyl)biphenyl-4-yl]methyl}-1H-benzimidazol-2-yl)cyclohexanecarboxylic acid] were, in that order, 140 nM and 0.47 nM.
For the compound `Cc1ccc(COc2ccc3nc([C@H]4CCCC[C@H]4C(=O)O)n(Cc4ccc(C#N)cc4)c3c2)nc1` (stereo in doubt) [Example 39, (1R*,2S*)-2-{1-(4-Cyanobenzyl)-6-[(5-methylpyridin-2-yl)methoxy]-1H-benzimidazol-2-yl}cyclohexanecarboxylic acid], the IC50 in assay [1] (Homo sapiens) came to 1070 nM. Also, in assay [2], the Ki worked out at 10 nM.
Consider `Cn1ccc(COc2ccc3nc([C@@H]4CCCC[C@@H]4C(=O)O)n(Cc4ccc(OC(F)(F)F)cc4F)c3c2)n1` (stereo in doubt) [Example 51, racemic cis-2-{1-[2-Fluoro-4-(trifluoromethoxy)benzyl]-6-[(1-methyl-1H-pyrazol-3-yl)methoxy]-1H-benzimidazol-2-yl}cyclohexanecarboxylic acid], for which, in assay [1] (Homo sapiens), the IC50 was 340 nM. Moreover, in assay [2], the Ki was 8 nM.
The like results for `Cn1ccc(COc2ccc3nc([C@@H]4CCCC[C@@H]4C(=O)O)n(Cc4ccc(OC(F)(F)F)cc4F)c3c2)n1` (stereo in doubt) [Example 52, (1S*,2R*)-2-{1-[2-Fluoro-4-(trifluoromethoxy)benzyl]-6-[(1-methyl-1H-pyrazol-3-yl)methoxy]-1H-benzimidazol-2-yl}cyclohexanecarboxylic acid] were, in that order, greater than 10000 nM and greater than 10000 nM.
The corresponding values for `Cn1ccc(COc2ccc3nc([C@H]4CCCC[C@H]4C(=O)O)n(Cc4ccc(OC(F)(F)F)cc4F)c3c2)n1` (stereo in doubt) [Example 53, (1R*,2S*)-2-(1-(2-Fluoro-4-(trifluoromethoxy)benzyl)-6-((1-methyl-1H-pyrazol-3-yl)methoxy)-1H-benzo[d]imidazol-2-yl)cyclohexanecarboxylic acid] are 270 nM and 3 nM.
The corresponding values for `CCC(CC)(Cc1nc2ccc(OCc3ccc(C)cn3)cc2n1Cc1ccc(Br)cc1)C(=O)O` [Example 8, 2-({1-(4-Bromobenzyl)-6-[(5-methylpyridin-2-yl)methoxy]-1H-benzimidazol-2-yl}methyl)-2-ethylbutanoic acid as the TFA salt] are 2320 nM and 10 nM.
